Test results as given in ChEMBL document CHEMBL3885861, “Open TG-GATES”.

Species: Rattus norvegicus
Assay: Open TG-GATES - Regimen: Daily Repeat
Format: toxicity, organism-based, Sprague-Dawley
Design: regimen Daily Repeat, gender Male, age 6 weeks
Conditions: in vivo, po, route gavage; for APTT / Bas / Eos / Fbg / Ht / Lym / MCHC / MCV / Mono / Neu / PT / Plat / RBC / Ret: tissue Blood; for KIDNEY_L / KIDNEY_R / KIDNEY_TOTAL: tissue Kidney; for AST / CRE / GLC / IP / K / LDH / RALB / TBIL / TC / TP / gamma-GTP: tissue Plasma
[1] = 30 mg/kg, 72 h, dose level Middle, time 3 day
[2] = 30 mg/kg, […], dose level Middle, time 7 day
[3] = 30 mg/kg, […], dose level Middle, time 14 day
[4] = 30 mg/kg, […], dose level Middle, time 28 day
[5] = 100 mg/kg, 72 h, dose level High, time 3 day
[6] = 100 mg/kg, […], dose level High, time 7 day
[7] = 100 mg/kg, […], dose level High, time 14 day
[8] = 100 mg/kg, […], dose level High, time 28 day

## CN(C)CCCN1c2ccccc2CCc2ccccc21 [IMIPRAMINE]
[1]
  TERMINAL_BW: 214.6 g
  APTT: 16.4 s
  Bas: 0%
  Eos: 1.4%
  Fbg: 303.4 mg/dL
  Ht: 44.3%
  Lym: 83.8%
  MCHC: 33%
  MCV: 61.8 fL
  Mono: 2%
  Neu: 12%
  PT: 16.9 s
  Plat: 115.8 x10_4/uL
  RBC: 717.2 x10_4/ul
  Ret: 3.2%
  KIDNEY_L: 0.9 g
  KIDNEY_R: 0.9 g
  KIDNEY_TOTAL: 1.8 g
  AST: 58.8 IU/L
  CRE: 0.2 mg/dL
  GLC: 182.4 mg/dL
  IP: 7.6 mg/dL
  K: 4.3 meq/L
  LDH: 90.4 IU/L
  RALB: 2.6 g/dL
  TBIL: 0.058 mg/dL
  TC: 77 mg/dL
  TP: 5.9 g/dL
  gamma-GTP: 1 IU/L
[2]
  TERMINAL_BW: 244.7 g
  APTT: 16.2 s
  Bas: 0%
  Eos: 1%
  Fbg: 323.8 mg/dL
  Ht: 41.6%
  Lym: 78.6%
  MCHC: 33%
  MCV: 61.3 fL
  Mono: 2%
  PT: 16.1 s
  Plat: 118.6 x10_4/uL
  RBC: 678.2 x10_4/ul
  Ret: 3.9%
  KIDNEY_L: 1.1 g
  KIDNEY_R: 1.1 g
  KIDNEY_TOTAL: 2.1 g
  AST: 59 IU/L
  CRE: 0.2 mg/dL
  GLC: 173 mg/dL
  IP: 7 mg/dL
  K: 4.2 meq/L
  LDH: 88.8 IU/L
  RALB: 2.5 g/dL
  TBIL: 0.044 mg/dL
  TC: 85 mg/dL
  TP: 5.8 g/dL
  gamma-GTP: 0.4 IU/L
[3]
  TERMINAL_BW: 294.7 g
  APTT: 16.3 s
  Bas: 0%
  Eos: 1.2%
  Fbg: 303.2 mg/dL
  Ht: 42.5%
  Lym: 75.8%
  MCHC: 33.4%
  MCV: 59.7 fL
  Mono: 2.6%
  PT: 16.3 s
  Plat: 107.7 x10_4/uL
  RBC: 712.4 x10_4/ul
  Ret: 4.3%
  KIDNEY_L: 1.2 g
  KIDNEY_R: 1.2 g
  KIDNEY_TOTAL: 2.4 g
  AST: 53.6 IU/L
  CRE: 0.2 mg/dL
  GLC: 170.8 mg/dL
  IP: 6.9 mg/dL
  K: 4.3 meq/L
  LDH: 100.6 IU/L
  RALB: 2.6 g/dL
  TBIL: 0.046 mg/dL
  TC: 88.2 mg/dL
  TP: 5.9 g/dL
  gamma-GTP: 0.6 IU/L
[4]
  TERMINAL_BW: 362.7 g
  APTT: 16.2 s
  Bas: 0.2%
  Eos: 1.2%
  Fbg: 305.2 mg/dL
  Ht: 45.7%
  Lym: 80.4%
  MCHC: 33.7%
  MCV: 57.1 fL
  Mono: 2%
  PT: 16.3 s
  Plat: 101.3 x10_4/uL
  RBC: 801 x10_4/ul
  Ret: 2.4%
  KIDNEY_L: 1.3 g
  KIDNEY_R: 1.3 g
  KIDNEY_TOTAL: 2.7 g
  AST: 53.8 IU/L
  CRE: 0.2 mg/dL
  GLC: 164.6 mg/dL
  IP: 7 mg/dL
  K: 4 meq/L
  LDH: 45.4 IU/L
  RALB: 2.7 g/dL
  TBIL: 0.056 mg/dL
  TC: 73.8 mg/dL
  TP: 6.3 g/dL
  gamma-GTP: 1 IU/L
[5]
  TERMINAL_BW: 197.8 g
  APTT: 15.5 s
  Bas: 0%
  Eos: 1%
  Fbg: 334.4 mg/dL
  Ht: 45.9%
  Lym: 74.8%
  MCHC: 33%
  MCV: 62.6 fL
  Mono: 2.4%
  PT: 16.5 s
  Plat: 126.7 x10_4/uL
  RBC: 733.8 x10_4/ul
  Ret: 2.8%
  KIDNEY_L: 0.9 g
  KIDNEY_R: 0.9 g
  KIDNEY_TOTAL: 1.8 g
  AST: 57.2 IU/L
  CRE: 0.2 mg/dL
  GLC: 163.8 mg/dL
  IP: 7.8 mg/dL
  K: 4.3 meq/L
  LDH: 57.8 IU/L
  RALB: 2.5 g/dL
  TBIL: 0.05 mg/dL
  TC: 93.8 mg/dL
  TP: 5.7 g/dL
  gamma-GTP: 0.8 IU/L
[6]
  TERMINAL_BW: 201.5 g
  APTT: 15.9 s
  Bas: 0%
  Eos: 1%
  Fbg: 347.8 mg/dL
  Ht: 45.6%
  Lym: 82.8%
  MCHC: 33.3%
  MCV: 59.9 fL
  Mono: 1.8%
  PT: 16.9 s
  Plat: 109.5 x10_4/uL
  RBC: 762.2 x10_4/ul
  Ret: 1.4%
  KIDNEY_L: 1 g
  KIDNEY_R: 0.9 g
  KIDNEY_TOTAL: 1.9 g
  AST: 51.6 IU/L
  CRE: 0.2 mg/dL
  GLC: 162.6 mg/dL
  IP: 7.2 mg/dL
  K: 4.1 meq/L
  LDH: 79 IU/L
  RALB: 2.5 g/dL
  TBIL: 0.048 mg/dL
  TC: 102.6 mg/dL
  TP: 5.6 g/dL
  gamma-GTP: 0.2 IU/L
[7]
  TERMINAL_BW: 221.4 g
  APTT: 18 s
  Bas: 0.4%
  Eos: 1.4%
  Fbg: 329.4 mg/dL
  Ht: 46.8%
  Lym: 69.8%
  MCHC: 33.5%
  MCV: 60.2 fL
  Mono: 4.4%
  PT: 17.3 s
  Plat: 98.5 x10_4/uL
  RBC: 777.6 x10_4/ul
  Ret: 1.7%
  KIDNEY_L: 1 g
  KIDNEY_R: 0.9 g
  KIDNEY_TOTAL: 1.9 g
  AST: 75.8 IU/L
  CRE: 0.2 mg/dL
  GLC: 155.8 mg/dL
  IP: 6.9 mg/dL
  K: 4.2 meq/L
  LDH: 73.6 IU/L
  RALB: 2.6 g/dL
  TBIL: 0.04 mg/dL
  TC: 74.6 mg/dL
  TP: 5.8 g/dL
  gamma-GTP: 1.2 IU/L
[8]
  TERMINAL_BW: 293.5 g
  APTT: 16.4 s
  Bas: 0.2%
  Eos: 1.2%
  Fbg: 377.5 mg/dL
  Ht: 46.7%
  Lym: 70%
  MCHC: 33.8%
  MCV: 55.4 fL
  Mono: 3%
  Neu: 25.2%
  PT: 16 s
  Plat: 93.4 x10_4/uL
  RBC: 842.5 x10_4/ul
  Ret: 2.6%
  KIDNEY_L: 1.2 g
  KIDNEY_R: 1.2 g
  KIDNEY_TOTAL: 2.4 g
  AST: 56 IU/L
  CRE: 0.2 mg/dL
  GLC: 148.5 mg/dL
  IP: 7 mg/dL
  K: 4.3 meq/L
  LDH: 40.5 IU/L
  RALB: 2.7 g/dL
  TBIL: 0.0425 mg/dL
  TC: 91.8 mg/dL
  TP: 6.2 g/dL
  gamma-GTP: 0.5 IU/L
